From PubChem BioAssay (NCI)
Where “and” joins values, the source holds several entries; their conditions need not be identical. Identical values can stand only once.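 96-well plates; 48 h exposure; 5 concentrations. Endpoints by linear interpolation between flanking doses. Not reached: highest tested concentration assigned. GI50 is the concentration that inhibits growth by half. TGI marks complete inhibition of growth.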

Columns and labels:
Experiment in all cases: NCI tumour cell line growth inhibition, 48 h
MOLT-4 leukemia = system: MOLT-4 leukemia
RXF 393 renal = system: RXF 393 renal
OVCAR-3 ovarian = system: OVCAR-3 ovarian
SW-620 colon = system: SW-620 colon
K-562 leukemia = system: K-562 leukemia
MALME-3M melanoma = system: MALME-3M melanoma
HCT-15 colon = system: HCT-15 colon
OVCAR-4 ovarian = system: OVCAR-4 ovarian
OVCAR-8 ovarian = system: OVCAR-8 ovarian
A498 renal = system: A498 renal

| SMILES | TGI (MOLT-4 leukemia) | TGI (RXF 393 renal) | TGI (OVCAR-3 ovarian) | TGI (SW-620 colon) | TGI (K-562 leukemia) | TGI (MALME-3M melanoma) | TGI (HCT-15 colon) | TGI (OVCAR-4 ovarian) | TGI (OVCAR-8 ovarian) | TGI (A498 renal) | GI50 (MOLT-4 leukemia) | GI50 (RXF 393 renal) | GI50 (OVCAR-3 ovarian) | GI50 (SW-620 colon) | GI50 (K-562 leukemia) | GI50 (MALME-3M melanoma) | GI50 (HCT-15 colon) | GI50 (OVCAR-4 ovarian) | GI50 (OVCAR-8 ovarian) | GI50 (A498 renal) |
| --- | --- | --- | --- | --- | --- | --- | --- | --- | --- | --- | --- | --- | --- | --- | --- | --- | --- | --- | --- | --- |
| COc1cc(/C=C/c2ccncc2)cc(OC)c1OC | > 100 µM | 99.2 µM | > 100 µM | > 100 µM | > 100 µM | > 100 µM | > 100 µM | > 100 µM | > 100 µM | > 100 µM | – | – | – | – | – | – | – | – | – | – |
| O=C(O)C/C(=C\c1ccco1)C(=O)O | > 100 µM | > 100 µM | > 100 µM | > 100 µM | > 100 µM | > 100 µM | > 100 µM | > 100 µM | > 100 µM | > 100 µM | – | – | – | – | – | – | – | – | – | – |
| CS/C(=N\C(=S)N(C)C)N(c1ccccc1)c1nc(=[N+](C)C)ss1 | 18.3 µM | 37.4 µM | 22.7 µM | 16.3 µM | 12.5 µM | 7.44 µM | > 100 µM | 24.7 µM | 28.1 µM | 7.04 µM | – | – | – | – | – | – | – | – | – | – |
| CCN1CCN(Cc2ccc(-c3cc4c(N[C@H](C)c5ccccc5)ncnc4[nH]3)cc2)CC1 | 9.35 µM and > 10 µM | 4.27 µM and 3.82 µM | 20.9 µM and > 10 µM | 19.9 µM and > 10 µM | 12.4 µM and > 10 µM | 4.14 µM and 4.02 µM | 17.9 µM and > 10 µM | 23 µM and > 10 µM | 33 µM and > 10 µM | 2.82 µM and 2.08 µM | 2.62 µM and 2.39 µM | 1.17 µM and 0.665 µM | 3.78 µM and 2.05 µM | 3.45 µM and 5.46 µM | 0.49 µM and 0.626 µM | 1.92 µM and 1.78 µM | 2.56 µM and 2.39 µM | 4.71 µM and > 10 µM | 3.5 µM and 8.1 µM | 0.947 µM and 0.35 µM |
| Cc1c2cc[n+](C)cc2c(C)c2c1sc1ccccc12 | 5.57 µM | 12 µM | 5.43 µM | 33.1 µM | 41.3 µM | 1.92 µM | > 100 µM | 11.4 µM | 4.8 µM | 13.6 µM | – | – | – | – | – | – | – | – | – | – |
| C[C@@H]1COCCN1c1cc(C2([S@](C)(=N)=O)CC2)nc(-c2ccnc3[nH]ccc23)n1 | 9.54 µM and > 10 µM | 6.37 µM and > 10 µM | > 80.6 µM | > 100 µM | > 100 µM | 45.1 µM and > 10 µM | > 100 µM | 40.9 µM and > 10 µM | > 84.5 µM | 3.71 µM and 8.78 µM | 2.58 µM and 3.39 µM | 1.33 µM and 3.34 µM | 4.16 µM and 5.15 µM | 4.79 µM and > 10 µM | 3.76 µM and 2.96 µM | 8.22 µM and 6.49 µM | 4.34 µM and 4.51 µM | 2.27 µM and 3.62 µM | 6.65 µM and > 10 µM | 0.43 µM and 1.27 µM |
| CC(=O)N[C@@H](Cc1ccc(OP(=O)(O)O)cc1)C(=O)N[C@H]1CCC(=O)N2CCC[C@@H](C(=O)NCc3ccc(Cl)cc3)N2C1=O | > 25 µM | > 25 µM | > 25 µM | > 25 µM | > 25 µM | > 25 µM | > 25 µM | > 25 µM | > 25 µM | > 25 µM | > 25 µM | > 25 µM | > 25 µM | > 25 µM | > 25 µM | > 25 µM | > 25 µM | > 25 µM | > 25 µM | > 25 µM |
| Nc1ccc2c(c1)C(=O)C(=O)c1c-2nc2ccccn12 | 4.88 µM | 2.99 µM | 3.07 µM | 3.83 µM | 3.88 µM | 0.572 µM | 1.87 µM | 2.49 µM | 3.23 µM | 3.37 µM | 1.96 µM | 1.6 µM | 1.26 µM | 1.8 µM | 1.09 µM | 0.271 µM | 0.427 µM | 1.23 µM | 1.29 µM | 1.57 µM |
| COc1cccc2c1C(=O)C=CC2=O | 2.34 µM | 17.7 µM | 3.51 µM | 23.6 µM | 4.97 µM | 30.6 µM | 24.2 µM | 3.77 µM | 9.97 µM | 29.9 µM | – | – | – | – | – | – | – | – | – | – |
| Cc1cccc(NC(=O)CCc2ccc(N3C(N)=NC(N)=NC3(C)C)cc2)c1 | > 100 µM | > 100 µM | > 100 µM | > 100 µM | > 100 µM | > 100 µM | > 100 µM | > 100 µM | > 100 µM | > 100 µM | 2.7 µM | > 42.1 µM | 6.76 µM | 1.13 µM | 0.715 µM | > 46.9 µM | > 100 µM | 18.4 µM | 13.6 µM | > 65.6 µM |
| C=CC[n+]1c(/C=C/C=C2\N(C)c3ccccc3C2(C)C)sc2ccc(OC)cc21 | 5.73 µM | 13.7 µM | 22.2 µM | 14.3 µM | 12.8 µM | 0.733 µM | 16.4 µM | 28.5 µM | 33.8 µM | 4.37 µM | 0.309 µM | 0.431 µM | 0.176 µM | 0.34 µM | 0.165 µM | 0.188 µM | 2.82 µM | 0.114 µM | 0.327 µM | 0.278 µM |
| FC(F)(F)c1nc(N2CCCC2)ncc1-c1nnnn1-c1ccc(Cl)cc1 | 25 µM | 51.7 µM | 83.4 µM | > 100 µM | 22.6 µM | 42.6 µM | > 100 µM | 74.8 µM | > 100 µM | 62.7 µM | 5.07 µM | 14.9 µM | 18.9 µM | 30.4 µM | 3 µM | 16.9 µM | 28.5 µM | 6.7 µM | 25 µM | 18.3 µM |
| CC(C)[C@]12O[C@H]1[C@@H]1O[C@]13[C@]1(O[C@H]1C[C@H]1C4=C(CC[C@@]13C)C(=O)OC4)[C@@H]2O | 0.0348 µM | 0.0353 µM and < 0.0169 µM | 0.0932 µM and 0.377 µM | – | > 100 µM | 0.0328 µM and 0.0467 µM | > 2.93 µM | – | – | 0.0454 µM and 0.0828 µM | 0.0128 µM | 0.0172 µM and < 0.0107 µM | 0.0198 µM | < 0.01 µM | 0.0151 µM | 0.018 µM | 0.0122 µM | 0.0174 µM | 0.0285 µM | 0.0274 µM |
| CC1(C)N=C(N)N=C(N)N1c1cccc(CCCCc2cccc(S(=O)(=O)F)c2)c1 | 80.7 µM | > 100 µM | 27.1 µM | > 100 µM | > 100 µM | 71.8 µM | > 100 µM | > 100 µM | > 100 µM | > 100 µM | 3.22 µM | 2.13 µM | 4.29 µM | 0.342 µM | 0.657 µM | 8.47 µM | 14.1 µM | 8.06 µM | 4.84 µM | 7.36 µM |
